System: collagenase
Assay: Collagenase inhibition (acetyl 14C collagen hydrolysis, procedure of Sellers et al.)
Assay type: biochemical
Details: 2 mM inhibitor; 35° C., 5 to 18 hours; Tris-CaCl2 pH 7.4; vs control devoid of inhibitor
Procedure: The inhibitory effect of the compounds of this invention toward collagenase was determined following the procedure of Sellers et al., Biochem J. 167 353-360 (1977) whereby the 2mM of the inhibitor being tested is incubated at 35° C. for from 5 to 18 hours (depending upon the potency of the collagenase) with collagen and collagenase (buffered with Tris®-CaCl2; pH 7.4). The collagen is acetyl ^14 C collagen. The samples are centrifuged and an aliquot removed for assay on a scintillation counter. Because native collagen forms insoluble fibrils under the test conditions, the supernatant liquid contains radioactivity as a measure of hydrolysis. The collagenase activity in the presence of 2mM inhibitor is compared to activity in a control devoid of inhibitor and the results reported as percent inhibition of collagenase activity. Each of the compounds of this invention have been established as active collagenase inhibitors by the test procedure.
The following example illustrates the preparation of a typical, representative compound of the invention. The precent inhibition of collagenase activity at the 2 mM polypeptide level in accordance with the previously described standard testing procedure is provided after the preparatory description is compared to D-penicillamine alone, the latter being a known collagenase inhibitor.

For CC(C)(S)[C@@H](N)C(=O)O [D-penicillamine], the Percent inhibition collagenase was 39.
